Measured values: patent US8945864B2, “Method of determining 1,5-anhydroglucitol, and reagent composition for determining 1,5-anhydroglucitol” (Ikeda Food Research Co., Ltd., priority 2006, dated 2015)
Like-named read-outs stand apart in the source and are kept apart here.

Assays:
[1] = molecular target: sorbose dehydrogenase (Sinorhizobium meliloti, UniProt Q92YU0); assay: Inhibitor test: additive in the reaction solution for the activity measurement; type: biochemical, Sinorhizobium sp. 97507
[2] = substrate: OCC1(O)OC[C@H](O)[C@@H](O)[C@@H]1O; assay: Km value of sorbose dehydrogenase; type: biochemical, Sinorhizobium sp. 97507; settings: other: Km of the sorbose dehydrogenase to the substrate; pH 7.0; 37.0 °C
Experimental: (§1) One mL of a 0.1 M potassium phosphate buffer, pH 7.0, 1.0 mL of 1.0 M L-sorbose, 0.14 mL of 3 mM 2,6-dichlorophenol indophenol (DCIP), 0.2 mL of 3 mM 1-methoxy-5-methylphenazinium methyl sulfate, and 0.61 mL of water were added to a 3 mL quartz cell, and the quartz cell was set to a spectrophotometer equipped with a thermostat cell holder, and incubated at 37° C. for ten minutes. Then, 0.05 mL of the enzyme solution was added to the quartz cell, and changes in absorbance of DCIP at 600 nm (AABS600/min) was measured at 37° C. As the molar extinction coefficient of DCIP at pH 7.0 is known as 16.3 mM^−1, and the amount of enzyme that reduced 1 μmol of DCIP for one minute is defined as one unit. Following the definition, the concentration of enzyme activity was calculated based on the following equation. enzyme activity (units/mL)=(−ΔABS600/min×3.0×dilution rate)/(16.3×1.0×0.05)
(§2) Measurement conditions in the above “method of measuring enzyme activity” were suitably modified as necessary, and the optimal pH, pH stability, optimal temperature, temperature stability, substrate specificity, Km value, total molecular weight, subunit molecular weight, inhibitor, and product of the enzyme reaction were identified. The properties of the enzyme were evaluated in accordance with the following tests.
[…]. […]

[3] = substrate: OC[C@H]1OC[C@H](O)[C@@H](O)[C@@H]1O; assay: Km value of sorbose dehydrogenase; type: biochemical, Sinorhizobium sp. 97507; settings: other: Km of the sorbose dehydrogenase to the substrate; pH 7.0; 37.0 °C
Experimental: as §1, §2
[…]. […]

[4] = Optimal pH of sorbose dehydrogenase; type: biochemical; settings: buffers pH 3.71-9.11, 33.3 mM; FIG. 3
[5] = Optimal temperature of sorbose dehydrogenase; type: biochemical; settings: 50 mM potassium phosphate buffer, pH 7.0; 35° C. to 70° C.; FIG. 5
[6] = Temperature stability of sorbose dehydrogenase; type: physicochemical; settings: pH 7.0, FIG. 6
[7] = additive final concentration 1.0 mM, control without additive = 100%

With `O=C(O)C(O)C(O)C(=O)O` (racemic) [DL-tartaric acid] the “Relative activity (%)” value [1, 7] was 86%.

For `[Cl][Fe]([Cl])[Cl]` [FeCl3], the “Relative activity (%)” value [1, 7] was 89%.

With `[Cl][Sn][Cl]` [SnCl2] the “Relative activity (%)” value ([1]; additive final concentration 0.5 mM, control without additive = 100%) was 86%.

`O=S(=O)(O)c1cc(O)c(O)c(S(=O)(=O)O)c1` [Tiron] showed an activity at 1000 µM ([1]; additive final concentration 1.0 mM, control without additive = 100%, read-out: Relative activity (%)) of 89%.

For `NC(N)=O` [Urea], the “Relative activity (%)” value [1, 7] was 92%.

For `[Cl][Cu][Cl]` [CuCl2], the “Relative activity (%)” value [1, 7] was 0% and the “Inhibition of the sorbose dehydrogenase (in words)” value ([1]; heavy metal ions, 1 mM) was “remarkably inhibited”.

With `[Cl][Cd][Cl]` [CdCl2] the “Relative activity (%)” value [1] was 91%.

B1: sorbose dehydrogenase (Sinorhizobium meliloti 1021) (protein)
chain: MMEGFDYVIVGGGSSGCVLAARLSENPSVRVCLIEAGGRDRHPLIHMPVGFAKLTAGPMTWGLTTAPQKHANNREIPYAQARVLGGGSSINAEVYTRGHPRDYDRWVEEGADGWSFQEVKPYFLRSEGNTILSGEWHGTDGPLGVSNLPDPQPMTRAFVQSCQELGIPYNPDFNGPVQEGAGVYQTTIRNSRRCSAAVGYLRPALARKNLMLITGALVLRIVFQGRRAVGVEYSTGGAAKIARAESEVLVTSGAIGTPKLMMLSGVGPAASLRSHGIDVVQDMAGVGQNLHDHFGVDIVAELKGHDSLDKYNKFHWMLLAGIEYALFKSGPVASNVVEGGAFWYGDRASPYPDLQFHFLAGAGAEAGVPSVPKGSSGVTLNSYTVRPKSRGSVTLRSADPRALPIVDPNFLDDPDDLRISVEGIRISREIFGQPSLQKYIKTIRFPDESVRTQADFEAYARQYGRTSYHPTCTCKMGRDDMSVVDPQLRVHGLDGIRICDSSVMPSLVGSNTNAATIMIGEKAADLIRGNI
With B1 the Km [2] was 65.6 mM and the Km [3] was 82.5 mM.

B2: sorbose dehydrogenase: recombinant sorbose dehydrogenase from Sinorhizobium sp. 97507, amino acid sequence SEQ ID NO: 2, produced in E. coli JM109/pUCNNT2_AGD1 (protein)
chain: B1 chain
modifications: Sinorhizobium sp. 97507
In the case of B2, the “Optimal pH” value [4] is reported as 8.0, the Optimal temperature [5] is reported as “around 60 °C” and the “Residual ratio of enzyme activity” value ([6]; 45° C. for ten minutes) is reported as 77%. For the same molecule, the “Temperature at which the enzyme is stable” value ([6]; ten minutes) was no more than 45 °C.
